Where two headings read alike, the source gives them in different places.
What was measured:
two-spotted spider mite = assay: Test 6: Effect on Two-Spotted Spider mite adults; format: in vivo; settings: Tetranychus urticae
Experimental: (§1) To a mixture of 20 parts of the compound of the present invention and 20 parts of Sorpol SM-200 (registered trademark for the product supplied by Toho Chemical Industrial Co., Ltd.) was added 60 parts of xylol, and the mixture was sufficiently blended. The obtained emulsifiable concentrate was diluted at a predetermined concentration with distilled water, and the obtained dilution was used.
A kidney bean leaf disc perforated with a cork borer (15 mm in diameter) was placed on water-impreganated absorbent cotton (2 cm×2 cm), and 10 adults of two-spotted spider mite were set free. A chemical dilution having a concentration of 500 ppm was applied with an applicator in an amount of 3 ml.
The leaf disc-placed absorbent cotton was placed in a thermostat chamber maintained at 25° C. After 24 hours, the number of killed adults was counted and the mortality was calculated. The test was made on three leaf discs and the average value was calculated.

[1] = Test 9: Toxicity Test (acute oral, mice); settings: mouse, in vivo, po
Experimental: In the fish toxicity test, the test compound was dissolved in acetone to form a 1% solution, and a predetermined amount of the solution was used. In the mouse toxicity test, the test compound of the present invention was dissolved or suspended in corn oil, and a predetermined amount of the solution or suspension was used.
A predetermined amount of a solution or suspension of a test compound in corn oil was orally administered to male mice having a body weight of 19 to 23 g (0.2 ml per 10 g of the body weight). After 7 days, the number of killed mice was counted and the influences on the mice were examined.

[2] = tested on: sensitive green rice leafhopper (collected at Chigasaki); assay: Test 3: Effect on Sensitive Green Rice Leafhopper; format: in vivo; settings: Nephotettix cincticeps, female adults, 24 hours
Experimental: as §1
(§2) Seedlings (having 2 to 3 leaves) of paddy rice were hydroponically cultured in a pot having a diameter of 5 cm. A chemical dilution having a concentration of 100 or 20 ppm, prepared in the same manner as described in Test 1, was applied with a sprayer at a rate of 3 ml per pot. The treated seedlings were air-dried and covered with a metal net cylinder, and female adults of resistant green rice leafhopper (collected at Nakagawara) and sensitive green rice leafhopper (collected at Chigasaki) were set, respectively, free in the pot at a density of 10 adults per pot. After of 24 hours, the numbers of killed and living adults were counted and the mortality was calculated. The test was made on three pots and the average value was calculated.

[3] = tested on: resistant green rice leafhopper (collected at Nakagawara); assay: Test 3: Effect on Resistant Green Rice Leafhopper; format: in vivo, Nephotettix cincticeps Uhler; settings: Nephotettix cincticeps, 24 h, read-out: Mortality (%) Green Rice Leafhopper Collected at Nakagawara
Experimental: as §1, §2

[4] = tested on: third-instar larvae of diamond back moth; assay: Test 4: Effect on Diamond Back Moth; format: in vivo; settings: Plutella xylostella, 24 hours
Experimental: as §1
Cabbage leaves were spread in a plastic cup, and 10 third-instar larvae of diamond back moth were set free in the cup.
A chemical dilution having a concentration of 100 or 20 ppm, prepared in the same manner as described in Test 1, was applied from an applicator at a rate of 3 ml per cup.
After scattering of the chemical dilution, the cup was covered, and after 24 hours, the numbers of killed and living larvae were counted and the mortality was calculated. The test was made on three cups and the average value was calculated.

German cockroach = assay: Test 7: Effect on German Cockroach; format: in vivo; settings: Blattella germanica, male adults, 24 hours, agonized and killed; for mortality at 10 mg/m2: 10 mg/m^2; for mortality at 50 mg/m2: 50 mg/m^2
Experimental: The bottom face of a high Petri dish having a diameter of 9 cm and a height of 9 cm was treated with 50 or 10 mg/m^2 of a test compound and the dish was air-dried. In order to prevent the adults from escaping from the dish, the inner wall of the dish was treated with butter. Then, 10 male adults of German cockroach were set free in each dish, and the dish was placed in a thermostat chamber maintained at 25° C. After 24 hours, the number of agonized and killed adults was counted. The test was made on two dishes and the average value was calculated.

[5] = tested on: Second-instar and fifth-instar larvae of tobacco cutworm; assay: Test 2: Tobacco Cutworm Larva Dipping Test; format: in vivo
Experimental: as §1
A dilution having a chemical concentration of 100 or 20 ppm was prepared in the same manner as described in Test 1.
Second-instar and fifth-instar larvae of tobacco cutworm were dipped in the dilution for 5 seconds, and the excessive dilution was removed by a filter paper. Then, the larvae were set free in a plastic cup and an artificial diet was supplied thereto. The cup was allowed to stand still in a thermostat chamber maintained at 25° C. After 24 hours, the numbers of the killed and living larvae were counted and the mortality was calculated. The test was made on three cups and the result was expressed by an average value.

[6] = 500 ppm, adults, 24 hours, read-out: Mortality (%)
[7] = 20 ppm, second-instar larvae, 24 hours, read-out: Mortality (%) Second-Instar Larvae
[8] = 100 ppm, second-instar larvae, 24 hours, read-out: Mortality (%) Second-Instar Larvae
[9] = topical, 24 h, read-out: Mortality (%) Fifth-Instar Larvae

| Compound | mortality at 20 ppm [2] [%] | mortality at 100 ppm [2] [%] | mortality at 20 ppm [3] [%] | mortality at 100 ppm [3] [%] | mortality at 20 ppm [4] [%] | mortality at 100 ppm [4] [%] | mortality at 10 mg/m2 (German cockroach) [%] | mortality at 50 mg/m2 (German cockroach) [%] | also measured |
| --- | --- | --- | --- | --- | --- | --- | --- | --- | --- |
| CCOP(=S)(OCC)Oc1ccc(=O)n(-c2ccccc2)n1 [(d), 0,0-diethyl-0-(3-oxo-2-phenyl-2H-pyridazin-6-yl)-phosphorothioate, reference compound] |  |  |  |  |  |  |  |  | mortality at 500 ppm (two-spotted spider mite; 24 h): 80% |
| CC(C)C(COCc1ccc(F)c(Oc2ccccc2)c1)c1ccc(Cl)cc1 (centres unmarked) [Compound 8, 3-Phenoxy-4-fluorobenzyl 2-(4-chlorophenyl)-3-methylbutyl ether] | 100 | 100 | 100 | 100 |  |  |  |  | LD50 at 168 h [1]: > 500 mg/kg |
| CC(C)(COCc1ccc(F)c(Oc2ccccc2F)c1)c1ccc(Cl)cc1 [Compound 11, 3-(2-Fluorophenoxy)-4-fluorobenzyl 2-(4-chlorophenyl)-2-methylpropyl ether] | 100 | 100 | 100 | 100 | 100 | 100 | 100 | 100 | mortality at 500 ppm (two-spotted spider mite; [6]): 100% |
| CC(C)(COCc1ccc(F)c(Oc2ccccc2)c1)c1ccc2ccccc2c1 [Compound 12, 3-Phenoxy-4-fluorobenzyl 2-(naphthalene-2-yl)-2-methylpropyl ether] | 80 | 100 | 95 | 100 |  |  |  |  | LD50 at 168 h [1]: > 500 mg/kg |
| CC(C)(COCc1ccc(F)c(Oc2ccccc2)c1)c1cccc(C(F)(F)F)c1 [Compound 17, 3-Phenoxy-4-fluorobenzyl 2-(3-trifluoromethylphenyl)-2-methylpropyl ether] | 90 | 100 | 100 | 100 |  |  |  |  |  |
| Cc1cccc(Oc2cc(COCC(C)(C)c3ccc(Cl)cc3)ccc2F)c1 [Compound 22, 3-(3-Methylphenoxy)-4-fluorobenzyl 2-(4-chlorophenyl)-2-methylpropyl ether] | 60 | 100 | 75 | 100 |  |  |  |  |  |
| CC(C)(COCc1ccc(F)c(Oc2ccccc2)c1)c1ccc([N+](=O)[O-])cc1 [Compound 30, 3-Phenoxy-4-fluorobenzyl 2-(4-nitrophenyl)-2-methylpropyl ether] | 80 | 100 | 90 | 100 |  |  |  |  |  |
| CC(C)(COCc1cc(Oc2ccccc2)ccc1F)c1ccc(Cl)cc1 [Compound 32, 3-Phenoxy-6-fluorobenzyl 2-(4-chlorophenyl)-2-methylpropyl ether] |  |  |  |  |  |  |  |  | LD50 at 168 h [1]: > 500 mg/kg |
| CC(C)(COCc1ccc(F)c(Oc2ccccc2)c1)c1ccc2c(c1)OCO2 [Compound 33, 3-Phenoxy-4-fluorobenzyl 2-(3,4-methylenedioxyphenyl)-2-methylpropyl ether] | 100 | 100 | 100 | 100 |  |  |  |  |  |
| Cc1ccc(C(C)(C)COCc2cc(Cl)cc(Oc3ccccc3)c2)cc1 [Compound 37, 3-Phenoxy-5-chlorobenzyl 2-(4-methylphenyl)-2-methylpropyl ether] |  |  |  |  |  |  |  |  | LD50 at 168 h [1]: > 500 mg/kg |
| CC(=O)c1ccc(C(C)(C)COCc2ccc(F)c(Oc3ccccc3)c2)cc1 [Compound 40] |  |  |  |  |  |  |  |  | LD50 at 168 h [1]: > 500 mg/kg |
| CCOc1ccc(C(CC)COCc2ccc(F)c(Oc3ccccc3)c2)cc1 (centres unmarked) [Compound 47, 3-Phenoxy-4-fluorobenzyl 2-(4-ethoxyphenyl)-butylether] |  |  |  |  | 100 | 100 | 100 | 100 | mortality at 500 ppm (two-spotted spider mite; [6]): 85% |
| CC(C)(COCc1ccc(F)c(Oc2ccccc2)c1)c1ccc(F)c(Cl)c1 [Compound 50, 3-Phenoxy-4-fluorobenzyl 2-(3-chloro-4-fluorophenyl)-2-methylpropyl ether] |  |  |  |  |  |  | 100 | 100 | mortality at 20 ppm [5, 7]: 90%; mortality at 100 ppm [5, 8]: 100%; mortality at 20 ppm [5, 9]: 80%; mortality at 100 ppm [5, 9]: 100% |
| CCOc1ccc(Oc2cc(COCC(C)(C)c3ccc(OCC)cc3)ccc2F)cc1 [Compound 53, 3-(4-Ethoxyphenoxy)-4-fluorobenzyl 2-(4-ethoxyphenyl)-2-methylpropyl ether] | 90 | 100 | 100 | 100 |  |  | 100 | 100 |  |
| CCOc1ccc(C(C)(CC)COCc2ccc(F)c(Oc3ccccc3)c2)cc1 (centres unmarked) [Compound 55, 3-Phenoxy-4-fluorobenzyl 2-(4-ethoxyphenyl)-2-methylbutyl ether] |  |  |  |  | 100 | 100 | 100 | 100 |  |
| CCOc1cccc(C(C)(C)COCc2ccc(F)c(Oc3ccccc3)c2)c1 [Compound 57] | 100 | 100 | 100 | 100 | 100 | 100 |  |  |  |
| CC(C)c1ccc(C(C)(C)COCc2ccc(F)c(Oc3ccccc3)c2)cc1 [Compound 58] | 100 | 100 | 100 | 100 |  |  | 100 | 100 | mortality at 500 ppm (two-spotted spider mite; [6]): 100% |
| CCOc1ccc(C(COCc2ccc(F)c(Oc3ccccc3)c2)C(C)C)cc1 (centres unmarked) [Compound 62, 3-Phenoxy-4-fluorobenzyl 2-(4-ethoxyphenyl)-3-methylbutyl ether] | 100 | 100 | 100 | 100 | 100 | 100 |  |  |  |
| CCC(C)Oc1ccc(C(C)(C)COCc2ccc(F)c(Oc3ccccc3)c2)cc1 (centres unmarked) [Compound 63] | 100 | 100 | 100 | 100 |  |  | 100 | 100 | mortality at 500 ppm (two-spotted spider mite; [6]): 100% |
| CCCOc1ccc(C(C)(C)COCc2ccc(F)c(Oc3ccccc3)c2)cc1 [Compound 65] | 100 | 100 | 100 | 100 | 100 | 100 | 100 | 100 |  |
| CC(C)(COCc1ccc(F)c(Oc2ccccc2)c1)c1ccc(I)cc1 [Compound 66, 3-Phenoxy-4-fluorobenzyl 2-(4-iodophenyl)-2-methylpropyl ether] | 100 | 100 | 100 | 100 | 90 | 100 | 100 | 100 | mortality at 500 ppm (two-spotted spider mite; [6]): 100%; mortality at 20 ppm [5, 7]: 90%; mortality at 100 ppm [5, 8]: 100%; mortality at 20 ppm [5, 9]: 75%; mortality at 100 ppm [5, 9]: 100% |

— patent US4599362A, “2-aryl-ethyl ether derivatives and insecticidal and acaricidal agents containing said derivatives” (priority 1980, dated 1986)
